This is an account of results in PubChem BioAssay AID1288 (Columbia University Molecular Screening Center, 2008).

Activity calls are given as the source filed them. How the calls were made is not given here.

The nature of the assay: inhibitors of TNFa-induced E-selectin expression, confirmation, imaging, retest plus dose response, cell count (AID 1288).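 Further: 0% = stimulated vehicle wells and 100% = unstimulated vehicle wells.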 The following applies: human endothelial cells, TNFa-induced E-selectin, imaging; at 2 µM; active compounds read high.

One may read the inhibition as the change of the read-out against control, counted positive when it falls. Take `O=C(N/N=C1/CCS(=O)(=O)c2ccc(F)cc21)c1ccccn1`: the inhibition is 8.24% (inactive).

`COc1ccc(C)cc1S(=O)(=O)N(C)CC(=O)N1CCCCC1`: the inhibition was -0.62% (inactive).

As for `Cc1ccc(C)n1NC(=O)c1cccs1`, the inhibition was 7.45% (inactive). The same measure for `O=C(NCN1C(=O)C2C3C=CC(C3)C2C1=O)Nc1nncs1` (stereo not drawn): 1.86% (inactive). As for `COc1ccc(C)cc1-n1nnnc1SCC(=O)Nc1cccnc1Cl`, the figure is -16.5% (inactive); as for `O=C(Nc1nnc(C2CC2)s1)c1cc(-c2ccccc2)nn1-c1ccccc1`, 6.68% (inactive). The same measure for `CS(=O)(=O)N1CCc2cc(-c3csc(NC(=O)Cc4cccs4)n3)ccc21`: 11.6% (inactive); for `Cc1cc(N2CCCCC2)nc(NCc2ccccc2)n1`: 36.1% (inactive). Consider `COc1cc(CC(=O)Oc2ccc3c(c2)OCO3)cc(OC)c1OC`, for which the inhibition is 32.5% (inactive).

As for `COc1ccc(CCNC(=O)COc2ncnc3cc([N+](=O)[O-])ccc23)cc1`, the inhibition was 15.8% (inactive). For the molecule `Cc1ccc(S(=O)(=O)Nc2ccc(NC(=O)Nc3ccc(F)cc3F)cc2)cc1`, the inhibition was 37.3% (inactive).

`COc1cc(CN2CCN(c3ccc(C)cc3)CC2)cc([N+](=O)[O-])c1O`: the inhibition was 24.7% (inactive).

Turning to `COC(=O)CN1C(=S)N(c2ccc(Cl)cc2)C(=O)C1CC(=O)Nc1ccc(Cl)cc1` (stereo not drawn), the inhibition was -1.33% (inactive). Consider `CCOC(=O)c1ccc(NC(=S)NCC(O)c2ccccc2)cc1` (stereo not drawn), for which the inhibition is 4.17% (inactive). In the case of `CCOc1cc2[nH]c(=O)n(CCCN3CCCC3=O)c(=O)c2cc1OCC`, the inhibition was 17% (inactive).

`O=C(O)C1C2C=CC(C2)C1C(=O)NCCCc1ccccc1` (stereo not drawn): the inhibition was 3.67% (inactive). The same measure for `O=C(COc1ccc(-c2nnco2)cc1)NCc1ccccc1Cl`: 10.1% (inactive); for `O=S1(=O)CCN(C(CCO)c2cccc(C(F)(F)F)c2)CC1` (stereo not drawn): 4.23% (inactive); for `Cc1c(Cl)cccc1N1C(=O)CC(N(O)c2ccccc2)C1=O` (stereo not drawn): 12.9% (inactive). The same measure for `CNC(=S)N=Nc1c(O)[nH]c2ccc(C(C)C)cc12`: 9.53% (inactive); for `CCCCCn1c(CN2CCN(Cc3ccccc3)CC2)nc2c1c(=O)n(C)c(=O)n2C`: 2.55% (inactive). Take `O=S1(=O)CCN(CCc2c[nH]c3ccccc23)CC1`: the inhibition is -4.95% (inactive). As for `CCN(CC)CCNC(=O)CS(=O)Cc1nc(-c2ccccc2Cl)oc1C` (stereo not drawn), the figure is 3.34% (inactive); as for `CN1c2ccccc2C2(C)CCCC3=Cc4cccc([N+](=O)[O-])c4OC312` (stereo not drawn), 2.99% (inactive); as for `C=CCNC(=O)/C=C/c1cccs1`, -0.12% (inactive). The same measure for `C=CCNS(=O)(=O)c1nc(C)c(Cl)c(C)c1C#N`: 0.74% (inactive).

Consider `O=C(CSc1nc2ccccc2[nH]1)N1CCN(S(=O)(=O)c2ccc(Cl)cc2)CC1`, for which the inhibition is 3.87% (inactive). As for `Cc1ccc(NC(=O)COc2ccc(-n3ccnc3)cc2)cc1Cl`, the figure is 9.69% (inactive); as for `NC(=S)NNc1cccc(Cl)c1`, 6.61% (inactive); as for `O=C(CCl)N1N=C(c2ccco2)CC1c1cccs1` (stereo not drawn), 26.9% (inactive). For `CCOc1cccc(C(=O)NC(=S)Nc2ccc(N3CCCC3)cc2)c1`, the inhibition is 10.5% (inactive). As for `Cc1c(N=C/C=C2\N(C)c3ccccc3C2(C)C)c(=O)n(-c2ccccc2)n1C`, the figure is 1.21% (inactive); as for `CCn1cc(C(=O)NCc2ccco2)c(=O)c2cc(S(=O)(=O)N3CCc4ccccc4C3)ccc21`, 41.9% (inactive); as for `CCOC(=O)c1c(NC(=O)CSc2nnc(CNc3ccc(C)cc3C)o2)sc(C)c1C`, 2.5% (inactive). For `COC(=O)c1c(NC(=O)C2COc3ccccc3O2)sc2c1CCN(Cc1ccccc1)C2` (stereo not drawn), the inhibition is 25.5% (inactive).

Take `Cc1ccc(C(=O)n2c(=S)nc3ccccn32)cc1`: the inhibition is 22.2% (inactive). As for `CC1CN(C(=O)/C(C#N)=C2\N=C(NC(=O)c3ccccc3Cl)c3ccccc32)CC(C)O1` (stereo not drawn), the figure is -0.23% (inactive); as for `CCc1n[nH]c2c1C(=O)CC(C)(C)C2`, 18% (inactive); as for `O=C(CN(CC1CCCO1)C(=O)CCC(=O)Nc1nccs1)NCc1ccc2c(c1)OCO2` (stereo not drawn), 33.3% (inactive). In the case of `CN1CCCN(S(=O)(=O)c2ccc(Cl)c(Cl)c2)CC1`, the inhibition is 0.45% (inactive). As for `N/C(Cc1ccc([N+](=O)[O-])cc1)=N\OC(=O)COc1ccc2ccccc2c1`, the figure is 12.6% (inactive); as for `O=S(=O)(N1CCOCC1)N1CCN(c2ccccc2F)CC1`, -1.16% (inactive).

As for `CCOC(=O)C1C(c2cc(OC)c(O)c(OC)c2)NC(=S)NC1(O)C(F)(F)F` (stereo not drawn), the inhibition is 7.39% (inactive). The same measure for `O=C(O)C(=O)/C(=C\c1ccccc1)c1ccc2ccccc2n1`: 23.7% (inactive); for `CCOC(=O)CCc1nc2ccccc2[nH]c1=O`: 15.7% (inactive). Turning to `CC(=O)c1ccc(NC(=S)N2CC(C)CC(C)C2)cc1` (stereo not drawn), the inhibition was -4.33% (inactive).

Turning to `Nc1ccc2c(c1)N1CCN=C1S2`, the inhibition was 11.1% (inactive). The same measure for `c1ccc(Nc2nc3ccccc3n3cnnc23)cc1`: 6.89% (inactive).

Consider `CCn1c(=O)cc(SCC(=O)N2CCN(C3CCCCC3)CC2)c2ccccc21`, for which the inhibition was 16.9% (inactive).

In the case of `Cc1cccc(C)c1NC(=O)CN(C)C(=O)/C=C/c1cccs1`, the inhibition was 1.62% (inactive).

With `Cc1cccc(NC(=O)Nc2ccc(C#N)cc2)n1`, the inhibition was 4.19% (inactive). In the case of `O=C(/C=C\Nc1cccc(F)c1)c1cccs1`, the inhibition was -1.7% (inactive). The same measure for `CCOC(=O)/C(C#N)=C1/C=Cc2ccccc2N1CC`: 10.7% (inactive).

As for `O=C(CSc1ccccn1)N/N=C/c1ccccc1[N+](=O)[O-]`, the inhibition is 5.02% (inactive). On to `Cc1ccc(O)c(NC(=S)NC(=O)c2ccc(-c3ccc(Cl)cc3)o2)c1`, for which the inhibition is 20.3% (inactive). The same measure for `CCCCCOC(=O)Cn1c(SCC(=O)Nc2ccccc2)nc2c1c(=O)[nH]c(=O)n2C`: -1.58% (inactive).

For the molecule `CCOC(=O)N(c1ccccc1)P1(=S)OCCO1`, the inhibition is 10.4% (inactive). As for `COCc1cc(C)nc(OCC(=O)N/N=C/c2ccc(-c3cc([N+](=O)[O-])ccc3C)o2)c1C#N`, the figure is 19% (inactive); as for `COc1ccc2[nH]c(C)c(CCN3C(=O)C4C5C=CC(C5)C4C3=O)c2c1` (stereo not drawn), 9.54% (inactive). As for `COc1c(Cl)cc(Cl)cc1C(=O)Nc1ccc(NC(C)=O)cc1`, the figure is 5.32% (inactive). As for `Cc1nn(-c2ccccc2)c(Cl)c1CN(C(=O)CCl)c1cccc2ccccc12`, the figure is 14.8% (inactive); as for `COc1ccc(CNC(=O)C(CCSC)NS(=O)(=O)c2ccccc2F)cc1` (stereo not drawn), 5.1% (inactive); as for `COc1ccc(C(=O)OCCNC(=O)c2c(Cl)nc3ccccn23)cc1`, 3.04% (inactive). `Fc1cccc(F)c1CSc1nc2ccccc2[nH]1`: the inhibition is 3.56% (inactive). The same measure for `OC(c1ccc2c(c1)OCO2)c1nccc2ccccc12` (stereo not drawn): 4.74% (inactive). `CC(C)(C)OC(=O)NCC(=O)N1CCC(C(=O)O)CC1`: the inhibition was -3.45% (inactive).

With `CN1CCCN(S(=O)(=O)c2cccc(Cl)c2Cl)CC1`, the inhibition was -0.57% (inactive).

As for `Cc1ccc(NC(=O)Nc2ccc3c(c2)N(C)C(=O)CS3)nc1`, the inhibition is 3.21% (inactive). For `CCCCN1C(=O)C2C3C=CC(C2C1=O)C1C2C(=O)N(CCCC)C(=O)C2C31` (stereo not drawn), the inhibition was 28.4% (inactive). As for `c1ccc(-n2c(-c3ccncc3)nnc2N2CCOCC2)cc1`, the figure is 5.7% (inactive). The same measure for `COc1ccc2c(c1OC)C(=O)OC2c1c(O)nc(SC)n(-c2ccccc2)c1=O` (stereo not drawn): 4.68% (inactive); for `CCOC(=O)c1ccc(-n2ccnc2)c(NC(=O)c2ccc(Cl)cc2)c1`: 11.1% (inactive). With `CO/C([O-])=N/c1c[n+](-c2ccc(Cl)cc2)no1`, the inhibition is 26.1% (inactive).

With `O=C(C1CCN(S(=O)(=O)c2cnc[nH]2)CC1)N1CCN(c2ncccn2)CC1`, the inhibition is 31.7% (inactive). The same measure for `CCCCNc1nc(CC)c2c(c1C#N)CCCC2`: 4.98% (inactive).

Turning to `Cc1nn(-c2ccccc2)c2sc(C(=O)O)cc12`, the inhibition was 2.23% (inactive).

Take `Cc1ccc(-n2c(SCC(=O)Nc3nccs3)nc3c(c2=O)SCC3)cc1`: the inhibition was 5.08% (inactive).

Take `CCc1cccc(CC)c1NC(=O)COC(=O)c1cccc(-c2ccc(OC(C)=O)cc2)c1`: the inhibition is 1.97% (inactive).

With `Cc1ccc(C2CC(=O)N(c3ccc(F)cc3)C3=C2C(=O)CCC3)cc1` (stereo not drawn), the inhibition was 4.74% (inactive).

Take `CCN(CC)c1ccc(NC(=O)C2CC3CCC2C3)cc1` (stereo not drawn): the inhibition was 24.7% (inactive).

For `Cn1cccc1/C=C1/C(=O)NC(=O)N(Cc2ccccc2)C1=O`, the inhibition is 35.4% (inactive). As for `COc1ccc(S(=O)(=O)Nc2cccc(S(=O)(=O)N3CCCCCC3)c2)cc1`, the figure is 31% (inactive); as for `CC1=Nc2ccccc2/C1=C/c1c(N)n2c(S(=O)(=O)CC(C)C)nsc2nc1=O`, 2.29% (inactive). The same measure for `N#CC1=C(N)Oc2cc(Nc3ccccc3)ccc2C1c1ccncc1` (stereo not drawn): 4.14% (inactive).

On to `c1csc(C(c2nnnn2C2CCCC2)N2CCCC3(CCCCC3)C2)c1` (stereo not drawn), for which the inhibition was -3.21% (inactive). `COc1ccccc1NC(=O)c1ccc(S(=O)(=O)N2CCCC2)cc1`: the inhibition is 3.22% (inactive). As for `[O-][n+]1onc2c1C(N1CCOCC1)CCC2N1CCOCC1` (stereo not drawn), the figure is 5.99% (inactive); as for `CCOC(=O)N1CCN(C(=O)C2CCN(S(=O)(=O)c3cc(OC)ccc3OC)CC2)CC1`, 1.55% (inactive).
